Values quoted from earlier work in patent publication US20090202630A1, “ORALLY DISINTEGRATING TABLET COMPOSITIONS OF RANITIDINE AND METHODS OF MANUFACTURE” (priority 2008, published 2009).
Counter-ions that a name gives are not always drawn.

## CNC(=C[N+](=O)[O-])NCCSCc1ccc(CN(C)C)o1 [Ranitidine hydrochloride]
  solubility in water (in words): freely soluble
